Measured values as given in patent US20240254129A1, “HETEROCYCLIC COMPOUNDS AND USES THEREOF” (Kumquat Biosciences Inc., priority 2021, published 2024).

How the values were obtained:
[1] = target: T1, K-Ras G12D mutant (Homo sapiens, UniProt P01116, G12D); assay: Nucleotide exchange assay (SOS1, BODIPY FL GDP), mutant K-Ras; type: biochemical; conditions: compound marked *: general methodology of example 7 (nucleotide exchange); read-out: IC50 against mutant Kras
T1 construct: GST (N); made in house; host or cells: E. coli BL21 (DE3)
Protocol: (§1) This assay can be also used to assess a selective inhibition of a mutant Ras protein relative to a wildtype, or relative to a different mutant Ras protein. For example, 250 nM or 500 nM GDP-loaded K-Ras proteins (e.g., wildtype or a mutant thereof including those mentioned in Example 6), each was incubated with different concentrations of compounds (for example ˜60 μM, ˜20 μM, ˜6.7 μM, ˜2.2 μM, ˜0.7 µM, ˜0.2 μM subject compound). A control reaction without subject compound was also included. SOS1 (catalytic domain) protein was added to the K-Ras protein solution. The nucleotide exchange reaction was initiated by adding fluorescent labelled GDP (Guanosine 5′-Diphosphate, BODIPY™ FL 2′-(or-3′)—O—(N-(2-Aminoethyl) Urethane) to a final concentration of 0.36 μM. Fluorescence was measured every 30 s for 70 minutes at 490 nm/515 nm (excitation/emission) in a M1000Pro plate reader (Tecan). Data is exported and analyzed to calculate an IC50 using GraphPad Prism (GraphPad Software). Sample(s) was tested with or without a subject compound disclosed herein including compound(s) exemplified in Table 1 to assess compound's ability to inhibit K-Ras signaling or its IC50 against a given Ras protein (e.g., a given mutant K-Ras) of interest.

[2] = target: T2, wildtype K-Ras (Homo sapiens, UniProt P01116); assay: Nucleotide exchange assay (SOS1, BODIPY FL GDP), wildtype K-Ras; type: biochemical; conditions: compound marked *: general methodology of example 7 (nucleotide exchange); read-out: IC50 against wildtype Kras
T2 construct: GST (N); made in house; host or cells: E. coli BL21 (DE3)
Protocol: as §1

T2 sequence (P01116 1-188 isoform P01116-2): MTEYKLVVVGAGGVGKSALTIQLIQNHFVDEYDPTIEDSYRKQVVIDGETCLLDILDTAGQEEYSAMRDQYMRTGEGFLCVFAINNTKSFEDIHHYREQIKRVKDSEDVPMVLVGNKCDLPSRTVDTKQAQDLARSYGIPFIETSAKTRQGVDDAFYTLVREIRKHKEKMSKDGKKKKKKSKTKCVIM
T1 sequence (P01116 1-188 isoform P01116-2 G12D): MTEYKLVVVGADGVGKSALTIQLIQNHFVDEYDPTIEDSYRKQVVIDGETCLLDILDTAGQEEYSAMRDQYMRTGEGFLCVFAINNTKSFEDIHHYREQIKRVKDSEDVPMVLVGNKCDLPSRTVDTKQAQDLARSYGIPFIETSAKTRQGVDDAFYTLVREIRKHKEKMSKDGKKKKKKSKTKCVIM

CN1CCC[C@H]1COc1nc(N2CCCNCC2)c2cc(Cl)c(-c3cccc4sc(N)nc34)c(F)c2n1 [Compound 101, 4-(6-chloro-4-(1,4-diazepan-1-yl)-8-fluoro-2-(((S)-1-methylpyrrolidin-2-yl)methoxy)quinazolin-7-yl)benzo[d]thiazol-2-amine]
IC50 [1]: < 500 nM | IC50 [2]: > 500 nM
